Test results as given in patent US4808703A, “Novel 3-(4'-aminobutylamino) propylaminobleomycin derivatives” (Zaidan Hojin Biseibutsu Kagaku Kenku Kai, priority 1983, dated 1989).

What was measured:
ICR mice = test: Pulmonary toxicity (fibrosis of the lung) in mice; details: for Incidence: Number of mice with pulmonary fibrosis/Number of mice in the treatment group / Incidence (%) of pulmonary fibrosis / Grade: Total score for pulmonary fibrosis/Total specimens / Grade of pulmonary fibrosis (total score divided by total number of specimens): 5 mg/kg i.p. once daily for 10 days; for Incidence: Number of mice with pulmonary fibrosis/Number of mice in the treatment group / Incidence (%) of pulmonary fibrosis: autopsy after 5 weeks of observation; for Incidence: Number of mice with pulmonary fibrosis/Number of mice in the treatment group: count; for Incidence (%) of pulmonary fibrosis: percentage in parentheses; for Grade: Total score for pulmonary fibrosis/Total specimens / Grade of pulmonary fibrosis (total score divided by total number of specimens): autopsy after 5 weeks, scores 0, 1, 2, 4, 6 points; for Grade: Total score for pulmonary fibrosis/Total specimens: fraction; for Grade of pulmonary fibrosis (total score divided by total number of specimens): value in parentheses; for Grade ratio: grade of the test compound to that of bleomycin complex; for Incidence ratio: incidence of the test compound to that of bleomycin complex
Experimental: ICR mice (male, 15-week-old) were used in groups of 10 each. The dose of each test compound was 5 mg/kg injected intraperitoneally once daily for 10 consecutive days. After the administration of the compound was completed, the animals were reared for 5 weeks for observation. Then, the animals were killed and autopsied so that the incidence and grade of pulmonary fibrosis were examined.
The incidence of pulmonary fibrosis was expressed as the number of mice developing pulmonary fibrosis in the group of mice administered the test compound. The grade of pulmonary fibrosis was expressed as the total score for pulmonary fibrosis divided by the total number of specimens.
1 point: Accumulation of exudate in the alveoli, and fibrosis-like changes seen in the alveolar septum.
2 points: Fibrosis seen at several sites.
4 points: Sporadic fibrosis.
6 points: Extensive fibrosis (fibrosis seen in more than 170 of the total region).
The ratio in the table represents the ratio of the incidence of the test compound to that of bleomycin complex, or the ratio of the grade of the test compound to that of bleomycin complex.

[1] = tested on: Mycobacterium smegmatis ATCC 607; test: Antibacterial activity by the agar cylinder plate method, Mycobacterium smegmatis ATCC607; assay type: cell-based; details: copper-containing compound, standard bleomycin A2 = 1,000 mcg potency/mg
From the text: (§1) (1) Antibacterial activity against Mycobacterium smegmatis ATCC607 and Bacillus subtilis
(§2) The above activity ws determined by the agar cylinder plate method using the above microorganisms.

Bacillus subtilis = test: Antibacterial activity by the agar cylinder plate method, Bacillus subtilis; assay type: cell-based; details: copper-containing compound, standard bleomycin A2 = 1,000 mcg potency/mg
From the text: as §1, §2

SMILES	Incidence: Number of mice with pulmonary fibrosis/Number of mice in the treatment group (ICR mice)	Incidence (%) of pulmonary fibrosis (ICR mice) [%]	Grade: Total score for pulmonary fibrosis/Total specimens (ICR mice)	Grade of pulmonary fibrosis (total score divided by total number of specimens) (ICR mice)	Grade ratio (ICR mice)	Incidence ratio (ICR mice)	Antibacterial titer of copper-compound [1] [mcg potency/mg]	Antibacterial titer of copper-compound (Bacillus subtilis) [mcg potency/mg]	Grade of pulmonary fibrosis (total score divided by total number of specimens) (ICR mice; the values are: mean fibrosis score per specimen)
Cc1c(N)nc(C(CC(N)=O)NCC(N)C(N)=O)nc1C(=O)NC(C(=O)NC(C)C(O)C(C)C(=O)NC(C(=O)NCCc1nc(-c2nc(C(=O)NCCCN(CCCCN(Cc3ccccc3)Cc3ccccc3)Cc3ccccc3)cs2)cs1)C(C)O)C(OC1OC(CO)C(O)C(O)C1OC1OC(CO)C(O)C(OC(N)=O)C1O)c1cnc[nH]1 (centres unmarked) [Compound 1, 3-[N-benzyl-N-(4'-dibenzylaminobutyl)amino]propylaminobleomycin]	0/10	0	0/30	0	0.00	0.00	17360	400	
Cc1c(N)nc(C(CC(N)=O)NCC(N)C(N)=O)nc1C(=O)NC(C(=O)NC(C)C(O)C(C)C(=O)NC(C(=O)NCCc1nc(-c2nc(C(=O)NCCCN(CCCCN(Cc3ccc(Cl)cc3)Cc3ccc(Cl)cc3)Cc3ccc(Cl)cc3)cs2)cs1)C(C)O)C(OC1OC(CO)C(O)C(O)C1OC1OC(CO)C(O)C(OC(N)=O)C1O)c1cnc[nH]1 (centres unmarked) [Compound 2, 3-{N--p-chlorobenzyl-N--[4'-bis(p-chlorobenzyl)aminobutyl]amino}propylaminobleomycin]	0/10	0	0/30	0	0.00	0.00	613	129	
Cc1c(N)nc(C(CC(N)=O)NCC(N)C(N)=O)nc1C(=O)NC(C(=O)NC(C)C(O)C(C)C(=O)NC(C(=O)NCCc1nc(-c2nc(C(=O)NCCCN(CCCCN(Cc3ccc(Cl)c(Cl)c3)Cc3ccc(Cl)c(Cl)c3)Cc3ccc(Cl)c(Cl)c3)cs2)cs1)C(C)O)C(OC1OC(CO)C(O)C(O)C1OC1OC(CO)C(O)C(OC(N)=O)C1O)c1cnc[nH]1 (centres unmarked) [Compound 3, 3-{N--m,p-dichlorobenzyl-N--[4'-bis(m,p-dichlorobenzyl)aminobutyl]amino}propylaminobleomycin]	0/10	0	0/30	0	0.00	0.00	217	43	
COc1ccc(CN(CCCCN(Cc2ccc(OC)cc2)Cc2ccc(OC)cc2)CCCNC(=O)c2csc(-c3csc(CCNC(=O)C(NC(=O)C(C)C(O)C(C)NC(=O)C(NC(=O)c4nc(C(CC(N)=O)NCC(N)C(N)=O)nc(N)c4C)C(OC4OC(CO)C(O)C(O)C4OC4OC(CO)C(O)C(OC(N)=O)C4O)c4cnc[nH]4)C(C)O)n3)n2)cc1 (centres unmarked) [Compound 4, 3-{N--p-methoxybenzyl-N--[4'-bis(p-methoxybenzyl)aminobutyl]amino}propylaminobleomycin]	0/10	0	0/30	0	0.00	0.00	11109	197	
Cc1ccc(CN(CCCCN(Cc2ccc(C)cc2)Cc2ccc(C)cc2)CCCNC(=O)c2csc(-c3csc(CCNC(=O)C(NC(=O)C(C)C(O)C(C)NC(=O)C(NC(=O)c4nc(C(CC(N)=O)NCC(N)C(N)=O)nc(N)c4C)C(OC4OC(CO)C(O)C(O)C4OC4OC(CO)C(O)C(OC(N)=O)C4O)c4cnc[nH]4)C(C)O)n3)n2)cc1 (centres unmarked) [Compound 5, 3-{N--p-methylbenzyl-N--[4'-bis(p-methylbenzyl)aminobutyl]amino}propylaminobleomycin]	0/10	0	0/30	0	0.00	0.00	4560	203	
Cc1c(N)nc(C(CC(N)=O)NCC(N)C(N)=O)nc1C(=O)NC(C(=O)NC(C)C(O)C(C)C(=O)NC(C(=O)NCCc1nc(-c2nc(C(=O)NCCCN(CCCCN(CC3CCCCCCC3)CC3CCCCCCC3)CC3CCCCCCC3)cs2)cs1)C(C)O)C(OC1OC(CO)C(O)C(O)C1OC1OC(CO)C(O)C(OC(N)=O)C1O)c1cnc[nH]1 (centres unmarked) [Compound 6, 3-{N--cyclooctylmethyl-N--[4'-bis(cyclooctylmethyl)aminobutyl]amino}propylaminobleomycin]	0/10	0	0/30	0	0.00	0.00	530	61	
CCCCCCCCCCN(CCCCCCCCCC)CCCCN(CCCCCCCCCC)CCCNC(=O)c1csc(-c2csc(CCNC(=O)C(NC(=O)C(C)C(O)C(C)NC(=O)C(NC(=O)c3nc(C(CC(N)=O)NCC(N)C(N)=O)nc(N)c3C)C(OC3OC(CO)C(O)C(O)C3OC3OC(CO)C(O)C(OC(N)=O)C3O)c3cnc[nH]3)C(C)O)n2)n1 (centres unmarked) [Compound 8, 3-{N--n-decyl-N--[4'-bis(n-decyl)-aminobutyl]amino}propylaminobleomycin]	0/10	0	0/30	0	0.00	0.00	295	75	
CCCCCN(CCCCC)CCCCN(CCCCC)CCCNC(=O)c1csc(-c2csc(CCNC(=O)C(NC(=O)C(C)C(O)C(C)NC(=O)C(NC(=O)c3nc(C(CC(N)=O)NCC(N)C(N)=O)nc(N)c3C)C(OC3OC(CO)C(O)C(O)C3OC3OC(CO)C(O)C(OC(N)=O)C3O)c3cnc[nH]3)C(C)O)n2)n1 (centres unmarked) [Compound 9, 3-{N--n-pentyl-N--[4'-bis(n-pentyl)aminobutyl]amino}propylaminobleomycin]	0/10	0	0/30	0	0.00	0.00	57408	3520	
Cc1c(N)nc(C(CC(N)=O)NCC(N)C(N)=O)nc1C(=O)NC(C(=O)NC(C)C(O)C(C)C(=O)NC(C(=O)NCCc1nc(-c2nc(C(=O)NCCCN(CCCCN(Cc3ccc(OCc4ccccc4)c(OCc4ccccc4)c3)Cc3ccc(OCc4ccccc4)c(OCc4ccccc4)c3)Cc3ccc(OCc4ccccc4)c(OCc4ccccc4)c3)cs2)cs1)C(C)O)C(OC1OC(CO)C(O)C(O)C1OC1OC(CO)C(O)C(OC(N)=O)C1O)c1cnc[nH]1 (centres unmarked) [Compound 10, 3-{N-m,p-dibenzyloxybenzyl-N-[4'bis(m,p-dibenzyloxybenzyl)aminobutyl]amino}propylaminobleomycin]	0/10	0	0/30	0	0.00	0.00	136	6	
Cc1c(N)nc(C(CC(N)=O)NCC(N)C(N)=O)nc1C(=O)NC(C(=O)NC(C)C(O)C(C)C(=O)NC(C(=O)NCCc1nc(-c2nc(C(=O)NCCC[N+](C)(C)CCCCN(Cc3ccccc3)Cc3ccccc3)cs2)cs1)C(C)O)C(OC1OC(CO)C(O)C(O)C1OC1OC(CO)C(O)C(OC(N)=O)C1O)c1cnc[nH]1 (centres unmarked) [Compound 11, 3-[N,N-dimethyl-N-(4'-dibenzyl-aminobutyl)amino]propylaminobleomycin]							20160	2528	
Cc1c(N)nc(C(CC(N)=O)NCC(N)C(N)=O)nc1C(=O)NC(C(=O)NC(C)C(O)C(C)C(=O)NC(C(=O)NCCc1nc(-c2nc(C(=O)NCCCNCCCCN)cs2)cs1)C(C)O)C(OC1OC(CO)C(O)C(O)C1OC1OC(CO)C(O)C(OC(N)=O)C1O)c1c[nH]cn1 (centres unmarked) [Compound A5, 3-(4'-aminobutylamino)propylaminobleomycin, reference compound]	5/10	50	5/30		0.29	0.71			0.17
